In patent US20260091026A1, “METHODS OF TREATING INFLAMMATORY DISEASES” (INTERLINE THERAPEUTICS, INC., priority 2023, published 2026):

Legend:
[1] = target: T1, RIPK2 (KD)/XIAP (BIR2) (Homo sapiens, UniProt O43353); test: RIPK2-XIAP binding competition PPI assay (TR-FRET); conditions: for Emax: 50 nM of GSK583 = -100% activity, read-out: PPI Amax; for IC50: GST-RIPK2 / His-XIAP (BIR2)-avi, 120 min at 23° C.
T1 construct: made in house; host or cells: baculovirus-infected Sf9 cells
How it was run: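 TR-FRET competition between GST-RIPK2 (aa 1-310, 1 nM) and His-XIAP BIR2-avi (aa 152-231, 25 nM), both Sf9-expressed, detected with anti-His-XL665 and anti-GST-Tb in Tris pH 7.5 buffer with MgCl2, DTT and vanadate. Incubation was 120 min at 23 °C; the 665/520 nm ratio was normalized to no inhibitor (0%) and 50 nM GSK583 (−100%).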

[2] = tested on: THP1-Dual cells, NF-κB pathway (SEAP); test: THP-1 Dual cell SEAP assay (L18-MDP stimulated); format: cell-based; conditions: Homo sapiens, 10 ng/mL L18-MDP, 20-24 h, SEAP readout, read-out: IFNγ THP1 IC50
How it was run: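 About 25,000 THP1-Dual cells per well were preincubated 30 min with serially diluted compound, then stimulated overnight (20-24 h, 37 °C) with 10 ng/mL L18-MDP (final). NF-κB-driven SEAP in supernatant was read with QUANTI-Blue at OD 620-655 nm after 2 h; % inhibition versus DMSO/L18-MDP wells was fitted by non-linear regression to give IC50.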

T1 sequence (O43353 1-310): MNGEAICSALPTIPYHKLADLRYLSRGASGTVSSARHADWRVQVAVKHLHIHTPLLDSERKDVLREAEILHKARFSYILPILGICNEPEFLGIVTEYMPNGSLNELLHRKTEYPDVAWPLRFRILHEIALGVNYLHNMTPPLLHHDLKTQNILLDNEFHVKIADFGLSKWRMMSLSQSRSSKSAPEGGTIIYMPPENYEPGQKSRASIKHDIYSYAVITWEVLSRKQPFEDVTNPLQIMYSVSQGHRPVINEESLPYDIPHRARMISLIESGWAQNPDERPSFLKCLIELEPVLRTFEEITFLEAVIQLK

SMILES | Emax [1] [%] | IC50 [1] [nM] | IC50 [2] [nM]
CCn1nc(-c2cnc3cc(OCCO)c(S(=O)(=O)C(C)(C)C)cn23)cc1C(=O)NCc1ncc(C)s1 [Example 126, 3-(6-(tert-butylsulfonyl)-7-(2-hydroxyethoxy)imidazo[1,2-a]pyridin-3-yl)-1-ethyl-N-((5-methylthiazol-2-yl)methyl)-1H-pyrazole-5-carboxamide] | ≥ 80 | < 10 | < 100
CCn1nc(-c2cnc3cc(OCCO)c(S(=O)(=O)C(C)(C)C)cn23)cc1C(=O)NCc1nccs1 [Example 127, 3-(6-(tert-butylsulfonyl)-7-(2-hydroxyethoxy)imidazo[1,2-a]pyridin-3-yl)-1-ethyl-N-(thiazol-2-ylmethyl)-1H-pyrazole-5-carboxamide] | ≥ 80 | < 10 | < 100
CCn1nc(-c2cnc3cc(OCCO)c(S(=O)(=O)C(C)(C)C)cn23)cc1C(=O)NCc1ccsn1 [Example 128, 3-(6-(tert-butylsulfonyl)-7-(2-hydroxyethoxy)imidazo[1,2-a]pyridin-3-yl)-1-ethyl-N-(isothiazol-3-ylmethyl)-1H-pyrazole-5-carboxamide] | ≥ 80 | < 10 | < 100
CCn1nc(-c2cnc3cc(OCCO)c(S(=O)(=O)C(C)(C)C)cn23)cc1C(=O)NCc1cc(C)sn1 [Example 129, 3-(6-(tert-butylsulfonyl)-7-(2-hydroxyethoxy)imidazo[1,2-a]pyridin-3-yl)-1-ethyl-N-((5-methylisothiazol-3-yl)methyl)-1H-pyrazole-5-carboxamide] | ≥ 80 | < 10 | < 100
CCn1nc(-c2cnc3cc(OCCO)c(S(=O)(=O)C(C)(C)C)cn23)cc1C(=O)N[C@H](C)c1ncc(C)s1 [Example 130, (R)-3-(6-(tert-butylsulfonyl)-7-(2-hydroxyethoxy)imidazo[1,2-a]pyridin-3-yl)-1-ethyl-N-(1-(5-methylthiazol-2-yl)ethyl)-1H-pyrazole-5-carboxamide] | ≥ 80 | < 10 | < 100
CCn1nc(-c2cnc3cc(OCCO)c(S(=O)(=O)C(C)(C)C)cn23)cc1C(=O)N[C@@H](C)c1ncc(C)s1 [Example 131, (S)-3-(6-(tert-butylsulfonyl)-7-(2-hydroxyethoxy)imidazo[1,2-a]pyridin-3-yl)-1-ethyl-N-(1-(5-methylthiazol-2-yl)ethyl)-1H-pyrazole-5-carboxamide] | ≥ 80 | 10 to 100 | 500 to 2500
CCn1nc(-c2cnc3cc(OCCO)c(S(=O)(=O)C(C)(C)C)cn23)cc1C(=O)N[C@H](C)c1cc(C)sn1 [Example 132, (R)-3-(6-(tert-butylsulfonyl)-7-(2-hydroxyethoxy)imidazo[1,2-a]pyridin-3-yl)-1-ethyl-N-(1-(5-methylisothiazol-3-yl)ethyl)-1H-pyrazole-5-carboxamide] | ≥ 80 | < 10 | < 100
CCn1nc(-c2cnc3cc(OCCO)c(S(=O)(=O)C(C)(C)C)cn23)cc1C(=O)N[C@@H](C)c1cc(C)sn1 [Example 133, (S)-3-(6-(tert-butylsulfonyl)-7-(2-hydroxyethoxy)imidazo[1,2-a]pyridin-3-yl)-1-ethyl-N-(1-(5-methylisothiazol-3-yl)ethyl)-1H-pyrazole-5-carboxamide] | ≥ 80 | 100 to 1000 | 500 to 2500
CCn1nc(-c2cnc3cc(OCCO)c(S(=O)(=O)C(C)(C)C)cn23)cc1C(=O)N[C@H](C)c1cc(C)ccn1 [Example 134, (R)-3-(6-(tert-butylsulfonyl)-7-(2-hydroxyethoxy)imidazo[1,2-a]pyridin-3-yl)-1-ethyl-N-(1-(4-methylpyridin-2-yl)ethyl)-1H-pyrazole-5-carboxamide] | ≥ 80 | 10 to 100 | 100 to 500
CCn1nc(-c2cnc3cc(OCCO)c(S(=O)(=O)C(C)(C)C)cn23)cc1C(=O)N[C@@H](C)c1cc(C)ccn1 [Example 135, (S)-3-(6-(tert-butylsulfonyl)-7-(2-hydroxyethoxy)imidazo[1,2-a]pyridin-3-yl)-1-ethyl-N-(1-(4-methylpyridin-2-yl)ethyl)-1H-pyrazole-5-carboxamide] | ≥ 80 | > 1000 | > 2500
C[C@@H](NC(=O)c1cc(-c2cnc3cc(OCCO)c(S(=O)(=O)C(C)(C)C)cn23)nn1C1CC1)c1ncccn1 [Example 136, (R)-3-(6-(tert-butylsulfonyl)-7-(2-hydroxyethoxy)imidazo[1,2-a]pyridin-3-yl)-1-cyclopropyl-N-(1-(pyrimidin-2-yl)ethyl)-1H-pyrazole-5-carboxamide] | ≥ 80 | < 10 | < 100
CC(C)n1nc(-c2cnc3cc(OCCO)c(S(=O)(=O)C(C)(C)C)cn23)cc1C(=O)N[C@H](C)c1ncccn1 [Example 137, (R)-3-(6-(tert-butylsulfonyl)-7-(2-hydroxyethoxy)imidazo[1,2-a]pyridin-3-yl)-1-isopropyl-N-(1-(pyrimidin-2-yl)ethyl)-1H-pyrazole-5-carboxamide] | ≥ 80 | < 10 | < 100
COCCn1nc(-c2cnc3cc(OCCO)c(S(=O)(=O)C(C)(C)C)cn23)cc1C(=O)N[C@H](C)c1ncccc1F [Example 138, (R)-3-(6-(tert-butylsulfonyl)-7-(2-hydroxyethoxy)imidazo[1,2-a]pyridin-3-yl)-N-(1-(3-fluoropyridin-2-yl)ethyl)-1-(2-methoxyethyl)-1H-pyrazole-5-carboxamide] | ≥ 80 | 10 to 100 | 100 to 500
C[C@@H](NC(=O)c1cc(-c2cnc3cc(OCCO)c(S(=O)(=O)C(C)(C)C)cn23)nn1C1COC1)c1ncccc1F [Example 139, (R)-3-(6-(tert-butylsulfonyl)-7-(2-hydroxyethoxy)imidazo[1,2-a]pyridin-3-yl)-N-(1-(3-fluoropyridin-2-yl)ethyl)-1-(oxetan-3-yl)-1H-pyrazole-5-carboxamide] | ≥ 80 | 10 to 100 | 100 to 500
COc1cc2ncc(-c3cc(C(=O)N[C@H](C)c4ncccc4F)n(C4CN(C(=O)OC(C)(C)C)C4)n3)n2cc1S(=O)(=O)C(C)(C)C [Example 140, tert-butyl (R)-3-(3-(6-(tert-butylsulfonyl)-7-methoxyimidazo[1,2-a]pyridin-3-yl)-5-((1-(3-fluoropyridin-2-yl)ethyl)carbamoyl)-1H-pyrazol-1-yl)azetidine-1-carboxylate] | ≥ 80 | 10 to 100 | 500 to 2500
COc1cc2ncc(-c3cc(C(=O)N[C@H](C)c4ncccc4F)n(C4CNC4)n3)n2cc1S(=O)(=O)C(C)(C)C [Example 141, (R)-1-(azetidin-3-yl)-3-(6-(tert-butylsulfonyl)-7-methoxyimidazo[1,2-a]pyridin-3-yl)-N-(1-(3-fluoropyridin-2-yl)ethyl)-1H-pyrazole-5-carboxamide] | ≥ 80 | 100 to 1000 | > 2500
COc1cc2ncc(-c3cc(C(=O)N[C@H](C)c4ccccn4)n(CCO)n3)n2cc1S(=O)(=O)C(C)(C)C [Example 142, (R)-3-(6-(tert-butylsulfonyl)-7-methoxyimidazo[1,2-a]pyridin-3-yl)-1-(2-hydroxyethyl)-N-(1-(pyridin-2-yl)ethyl)-1H-pyrazole-5-carboxamide] | ≥ 80 | 10 to 100 | 500 to 2500
COc1cc2ncc(-c3cc(C(=O)N[C@H](C)c4ncccc4F)n(CCO)n3)n2cc1S(=O)(=O)C(C)(C)C [Example 143, (R)-3-(6-(tert-butylsulfonyl)-7-methoxyimidazo[1,2-a]pyridin-3-yl)-N-(1-(3-fluoropyridin-2-yl)ethyl)-1-(2-hydroxyethyl)-1H-pyrazole-5-carboxamide] | ≥ 80 | 10 to 100 | 100 to 500
COc1cc2ncc(-c3cc(C(=O)N[C@H](C)c4ccccn4)n(CCCO)n3)n2cc1S(=O)(=O)C(C)(C)C [Example 144, (R)-3-(6-(tert-butylsulfonyl)-7-methoxyimidazo[1,2-a]pyridin-3-yl)-1-(3-hydroxypropyl)-N-(1-(pyridin-2-yl)ethyl)-1H-pyrazole-5-carboxamide] | ≥ 80 | 10 to 100 | 100 to 500
COc1cc2ncc(-c3cc(C(=O)N[C@H](C)c4ncccc4F)n(CCCO)n3)n2cc1S(=O)(=O)C(C)(C)C [Example 145, (R)-3-(6-(tert-butylsulfonyl)-7-methoxyimidazo[1,2-a]pyridin-3-yl)-N-(1-(3-fluoropyridin-2-yl)ethyl)-1-(3-hydroxypropyl)-1H-pyrazole-5-carboxamide] | ≥ 80 | 10 to 100 | < 100
COc1cc2ncc(-c3cc(C(=O)N[C@H](C)c4ccccn4)[nH]n3)n2cc1S(=O)(=O)C(C)(C)C [Example 146, (R)-3-(6-(tert-butylsulfonyl)-7-methoxyimidazo[1,2-a]pyridin-3-yl)-N-(1-(pyridin-2-yl)ethyl)-1H-pyrazole-5-carboxamide] | ≥ 80 | 10 to 100 | 100 to 500
COc1cc2ncc(-c3cc(C(=O)N[C@H](C)c4ncccc4F)n(C4CN(C)C4)n3)n2cc1S(=O)(=O)C(C)(C)C [Example 147, (R)-3-(6-(tert-butylsulfonyl)-7-methoxyimidazo[1,2-a]pyridin-3-yl)-N-(1-(3-fluoropyridin-2-yl)ethyl)-1-(1-methylazetidin-3-yl)-1H-pyrazole-5-carboxamide] | ≥ 80 | 100 to 1000 | 500 to 2500
